Laboratory results as given in PubChem BioAssay (NCI).
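Interpolation was linear, between the two tested concentrations surrounding the appropriate level; five concentrations were tested over 48 hours in 96-well plates. TGI marks complete inhibition of growth.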

Assays:
Experiment in all cases: inhibition of tumour cell growth, NCI panel, 48 h
[1] = tested on: U251 CNS
[2] = tested on: UACC-62 melanoma
[3] = tested on: HOP-92 NSCLC
[4] = tested on: CAKI-1 renal
[5] = tested on: MALME-3M melanoma
[6] = tested on: UACC-257 melanoma
[7] = tested on: A549 NSCLC
[8] = tested on: SF-539 CNS
[9] = tested on: SNB-19 CNS
[10] = tested on: HL-60(TB) leukemia
[11] = tested on: UO-31 renal
[12] = tested on: SK-MEL-2 melanoma
[13] = tested on: SK-OV-3 ovarian
[14] = tested on: A498 renal
[15] = tested on: SF-295 CNS
[16] = tested on: T-47D breast
[17] = tested on: HS 578T breast
[18] = tested on: MDA-N
[19] = tested on: PC-3 prostate

C[n+]1c2ccccc2c(NC(CS)C(=O)O)c2ccccc21 (stereo unspecified)
TGI [1]: 89.4 µM
TGI [2]: 34.2 µM
TGI [3]: 60.2 µM
TGI [4]: 97.2 µM
TGI [5]: > 100 µM
TGI [6]: 92.9 µM
TGI [7]: 70.1 µM
TGI [8]: 44 µM
TGI [9]: > 100 µM
TGI [10]: 44.8 µM
TGI [11]: 66.6 µM
TGI [12]: 89.7 µM
TGI [13]: 61 µM
TGI [14]: 53 µM
TGI [15]: 77.7 µM

Cc1ccc(N=Nc2ccc(N)cc2C)c(S(N)(=O)=O)c1
TGI [1]: > 100 µM
TGI [2]: > 100 µM
TGI [16]: > 100 µM
TGI [3]: 99.5 µM
TGI [4]: > 100 µM
TGI [5]: > 100 µM
TGI [6]: > 100 µM
TGI [17]: > 100 µM
TGI [7]: > 100 µM
TGI [8]: > 100 µM
TGI [18]: > 100 µM
TGI [9]: > 100 µM
TGI [10]: > 100 µM
TGI [11]: > 100 µM
TGI [12]: > 100 µM
TGI [19]: > 100 µM
TGI [13]: > 100 µM
TGI [14]: > 100 µM
TGI [15]: > 100 µM

C[N+]1(Cc2ccc(Cl)c(Cl)c2)CCCC1C1CCCN(Cc2ccc(Cl)c(Cl)c2)C1 (stereo unspecified)
TGI [1]: > 100 µM
TGI [2]: > 100 µM
TGI [16]: > 100 µM
TGI [3]: > 100 µM
TGI [4]: > 100 µM
TGI [5]: > 100 µM
TGI [6]: > 100 µM
TGI [17]: > 100 µM
TGI [7]: > 100 µM
TGI [8]: > 100 µM
TGI [18]: > 100 µM
TGI [9]: > 100 µM
TGI [11]: > 100 µM
TGI [12]: > 100 µM
TGI [19]: > 100 µM
TGI [13]: > 100 µM
TGI [14]: > 100 µM
TGI [15]: > 100 µM

Nc1ccc(S(=O)(=O)Nc2ccc(Nc3c4ccccc4nc4ccccc34)cc2)cc1
TGI [1]: 4.94 µM
TGI [2]: 3.66 µM
TGI [16]: 31.5 µM
TGI [3]: 4.84 µM
TGI [4]: 0.517 µM
TGI [5]: 10.8 µM
TGI [6]: 20.2 µM
TGI [17]: 54.7 µM
TGI [7]: 0.919 µM
TGI [8]: 0.362 µM
TGI [18]: 22.8 µM
TGI [9]: 9.54 µM
TGI [10]: 0.183 µM
TGI [11]: 4.24 µM
TGI [12]: 15.9 µM
TGI [19]: 17.4 µM
TGI [13]: 0.501 µM
TGI [14]: 1.14 µM
TGI [15]: 1.03 µM

C/C=C(\C)C(=O)OC1C(C)=C2C(C1OC(=O)CCCC)C(C)(OC(C)=O)CC(OC(=O)CCCC)C1(O)C2OC(=O)C1(C)O (stereo unspecified)
TGI [1]: > 100 µM
TGI [2]: 13.2 µM
TGI [16]: > 100 µM
TGI [3]: > 100 µM
TGI [4]: > 92.2 µM
TGI [6]: > 100 µM
TGI [17]: > 100 µM
TGI [7]: > 100 µM
TGI [8]: > 100 µM
TGI [18]: > 100 µM
TGI [9]: > 100 µM
TGI [10]: > 100 µM
TGI [11]: 71.2 µM
TGI [12]: 3.96 µM
TGI [19]: > 37.5 µM
TGI [13]: > 100 µM
TGI [14]: > 100 µM
TGI [15]: > 100 µM

O=C(NC1C=Nc2ccc([N+](=O)[O-])cc2NC1=O)c1cc(Cl)cc([N+](=O)[O-])c1 (stereo unspecified)
TGI [1]: > 100 µM
TGI [2]: > 100 µM
TGI [3]: > 100 µM
TGI [4]: > 100 µM
TGI [6]: > 100 µM
TGI [7]: > 100 µM
TGI [8]: > 100 µM
TGI [9]: > 100 µM
TGI [10]: > 100 µM
TGI [11]: > 100 µM
TGI [12]: > 100 µM
TGI [13]: > 100 µM
TGI [14]: > 100 µM
TGI [15]: > 100 µM

CC(C)(C)NCC(O)c1ccc(O)c(CO)n1 (stereo unspecified)
TGI [1]: > 100 µM
TGI [2]: > 100 µM
TGI [16]: > 100 µM
TGI [3]: > 100 µM
TGI [4]: > 100 µM
TGI [6]: > 100 µM
TGI [17]: > 100 µM
TGI [7]: > 100 µM
TGI [8]: > 100 µM
TGI [18]: > 100 µM
TGI [9]: > 100 µM
TGI [10]: > 100 µM
TGI [11]: > 100 µM
TGI [12]: > 100 µM
TGI [19]: > 100 µM
TGI [13]: > 100 µM
TGI [14]: > 100 µM
TGI [15]: > 100 µM

CN(Cc1cccc2ccccc12)Cc1cccc2ccccc12
TGI [1]: 49.6 µM
TGI [2]: > 100 µM
TGI [16]: 72.2 µM
TGI [4]: > 100 µM
TGI [5]: 63.4 µM
TGI [6]: > 100 µM
TGI [17]: > 100 µM
TGI [7]: > 100 µM
TGI [8]: 59.6 µM
TGI [9]: > 100 µM
TGI [10]: 33.4 µM
TGI [11]: > 100 µM
TGI [12]: 31 µM
TGI [19]: 57.7 µM
TGI [13]: > 100 µM
TGI [14]: 80.1 µM
TGI [15]: > 100 µM

Cc1cc2sc(C)[n+](CCCOS(=O)(=O)[O-])c2cc1C
TGI [1]: > 100 µM
TGI [2]: > 100 µM
TGI [16]: > 100 µM
TGI [3]: > 100 µM
TGI [4]: > 100 µM
TGI [5]: > 100 µM
TGI [6]: > 100 µM
TGI [17]: > 100 µM
TGI [7]: > 100 µM
TGI [8]: > 100 µM
TGI [18]: > 100 µM
TGI [9]: > 100 µM
TGI [10]: > 100 µM
TGI [11]: > 100 µM
TGI [12]: > 100 µM
TGI [19]: > 100 µM
TGI [13]: > 100 µM
TGI [14]: > 100 µM
TGI [15]: > 100 µM

COC(=O)c1cc2cc3c(c(O)c2c(=O)o1)O[C@@]1(Oc2c(O)c4c(c(O)c2[C@H]1OC1CC(OC)C(O)C(C)O1)C(=O)C=C(OC)C4=O)[C@H](O)C3 (stereo partly specified)
TGI [2]: 1.78 µM
TGI [16]: 7.2 µM
TGI [3]: > 23.6 µM
TGI [4]: 3.2 µM
TGI [6]: 14.1 µM
TGI [8]: 1.97 µM
TGI [18]: > 100 µM
TGI [9]: 12.6 µM
TGI [10]: 3.39 µM
TGI [11]: > 30.4 µM
TGI [12]: 10.5 µM
TGI [19]: 12.2 µM
TGI [13]: 17 µM
TGI [15]: > 29.6 µM
